Assay results published in patent US11447505B1, “Pyrrolo[2,3-b]pyridine compounds and their use in the treatment of cancer” (priority 2017, dated 2022).

Experiments:
[1] = target: MRCKβ (Homo sapiens (Human), UniProt Q9Y5S2); experiment: MRCKβ kinase assay (IMAP fluorescence polarization); type: biochemical; conditions: 1 μM ATP; read-out: MRCK-B Average Ki
Text: MRCKα, MRCKβ, ROCK1 and ROCK2 Kinase Assays

[2] = target: ROCK2 (Homo sapiens (Human), UniProt O75116); experiment: ROCK2 kinase assay (IMAP fluorescence polarization); type: biochemical; conditions: 1 μM ATP; read-out: ROCK2 Average Ki
ROCK2, sequence (O75116 whole entry): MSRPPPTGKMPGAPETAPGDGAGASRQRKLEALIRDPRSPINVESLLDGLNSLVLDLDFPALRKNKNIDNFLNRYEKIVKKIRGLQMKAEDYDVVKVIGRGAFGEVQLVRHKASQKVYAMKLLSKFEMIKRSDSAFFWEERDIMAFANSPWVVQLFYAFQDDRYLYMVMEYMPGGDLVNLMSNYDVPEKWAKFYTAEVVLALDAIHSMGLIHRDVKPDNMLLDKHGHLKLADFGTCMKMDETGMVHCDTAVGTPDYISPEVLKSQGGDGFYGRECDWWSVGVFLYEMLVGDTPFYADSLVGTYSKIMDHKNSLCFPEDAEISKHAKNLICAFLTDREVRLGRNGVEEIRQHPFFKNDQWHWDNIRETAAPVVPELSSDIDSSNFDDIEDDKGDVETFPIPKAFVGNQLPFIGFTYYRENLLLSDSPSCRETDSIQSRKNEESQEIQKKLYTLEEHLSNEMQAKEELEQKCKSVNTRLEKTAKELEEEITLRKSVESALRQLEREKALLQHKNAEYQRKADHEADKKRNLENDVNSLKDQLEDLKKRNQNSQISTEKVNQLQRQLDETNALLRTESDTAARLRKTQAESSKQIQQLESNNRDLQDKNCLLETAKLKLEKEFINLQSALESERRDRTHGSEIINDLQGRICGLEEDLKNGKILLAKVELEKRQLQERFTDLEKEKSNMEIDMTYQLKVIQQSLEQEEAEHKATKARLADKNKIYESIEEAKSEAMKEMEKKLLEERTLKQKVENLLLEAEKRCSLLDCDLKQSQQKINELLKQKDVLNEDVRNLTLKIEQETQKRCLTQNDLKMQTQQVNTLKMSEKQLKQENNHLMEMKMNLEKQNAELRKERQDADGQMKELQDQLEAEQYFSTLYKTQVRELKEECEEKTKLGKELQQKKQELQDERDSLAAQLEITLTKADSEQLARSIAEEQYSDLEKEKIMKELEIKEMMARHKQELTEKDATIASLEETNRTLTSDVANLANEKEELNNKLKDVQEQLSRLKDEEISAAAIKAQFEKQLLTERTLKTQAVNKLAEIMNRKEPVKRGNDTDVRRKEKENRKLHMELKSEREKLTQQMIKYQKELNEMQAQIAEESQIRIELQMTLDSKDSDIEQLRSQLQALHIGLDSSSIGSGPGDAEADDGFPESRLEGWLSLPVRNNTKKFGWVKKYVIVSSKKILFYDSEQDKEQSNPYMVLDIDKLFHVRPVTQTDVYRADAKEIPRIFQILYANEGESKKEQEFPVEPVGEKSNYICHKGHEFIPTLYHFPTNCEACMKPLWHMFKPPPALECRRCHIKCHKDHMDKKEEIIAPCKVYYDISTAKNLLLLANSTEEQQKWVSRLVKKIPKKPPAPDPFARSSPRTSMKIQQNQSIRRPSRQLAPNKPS
Description: MRCKα, MRCKβ, ROCK1 and ROCK2 assays were performed using an IMAP fluorescence polarization assay format (Molecular Devices Inc.). 8-12 nM of each kinase (Life Technologies) was incubated for 60 min at room temperature with 100 nM FAM-S6-ribosomal protein derived peptide (synthesized by Alta Biosciences, University of Birmingham UK) in the presence of 1 μM ATP and 0.5 mM MgCl2 in 20 mM Tris buffer (pH 7.4) containing 0.01% Tween-20 and 1 mM DTT (MRCKα and β); or 1 μM ATP, 10 mM MgCl2 in 20 mM Tris buffer (pH 7.5) containing 0.25 mM EGTA 0.01% Triton X-100 and 1 mM DTT (ROCK1 and ROCK2). Typically, dose response analyses were performed over concentration ranges from 0.005-100 μM. Reactions were stopped by adding 2 assay volumes of 0.25% (v/v) IMAP binding reagent in 1×IMAP binding buffer A (Molecular Devices). After 30 min incubation to allow binding reagent to bind phosphorylated peptide, fluorescence polarization was measured on a Tecan Saphire^2 plate reader at excitation (470 nm) and emission (530 nm) wavelengths.

[3] = target: ROCK1 (Homo sapiens (Human), UniProt Q13464); conditions: read-out: ROCK1 Average Ki; 1 μM ATP
ROCK1, sequence (Q13464 2-1354 limits assumed): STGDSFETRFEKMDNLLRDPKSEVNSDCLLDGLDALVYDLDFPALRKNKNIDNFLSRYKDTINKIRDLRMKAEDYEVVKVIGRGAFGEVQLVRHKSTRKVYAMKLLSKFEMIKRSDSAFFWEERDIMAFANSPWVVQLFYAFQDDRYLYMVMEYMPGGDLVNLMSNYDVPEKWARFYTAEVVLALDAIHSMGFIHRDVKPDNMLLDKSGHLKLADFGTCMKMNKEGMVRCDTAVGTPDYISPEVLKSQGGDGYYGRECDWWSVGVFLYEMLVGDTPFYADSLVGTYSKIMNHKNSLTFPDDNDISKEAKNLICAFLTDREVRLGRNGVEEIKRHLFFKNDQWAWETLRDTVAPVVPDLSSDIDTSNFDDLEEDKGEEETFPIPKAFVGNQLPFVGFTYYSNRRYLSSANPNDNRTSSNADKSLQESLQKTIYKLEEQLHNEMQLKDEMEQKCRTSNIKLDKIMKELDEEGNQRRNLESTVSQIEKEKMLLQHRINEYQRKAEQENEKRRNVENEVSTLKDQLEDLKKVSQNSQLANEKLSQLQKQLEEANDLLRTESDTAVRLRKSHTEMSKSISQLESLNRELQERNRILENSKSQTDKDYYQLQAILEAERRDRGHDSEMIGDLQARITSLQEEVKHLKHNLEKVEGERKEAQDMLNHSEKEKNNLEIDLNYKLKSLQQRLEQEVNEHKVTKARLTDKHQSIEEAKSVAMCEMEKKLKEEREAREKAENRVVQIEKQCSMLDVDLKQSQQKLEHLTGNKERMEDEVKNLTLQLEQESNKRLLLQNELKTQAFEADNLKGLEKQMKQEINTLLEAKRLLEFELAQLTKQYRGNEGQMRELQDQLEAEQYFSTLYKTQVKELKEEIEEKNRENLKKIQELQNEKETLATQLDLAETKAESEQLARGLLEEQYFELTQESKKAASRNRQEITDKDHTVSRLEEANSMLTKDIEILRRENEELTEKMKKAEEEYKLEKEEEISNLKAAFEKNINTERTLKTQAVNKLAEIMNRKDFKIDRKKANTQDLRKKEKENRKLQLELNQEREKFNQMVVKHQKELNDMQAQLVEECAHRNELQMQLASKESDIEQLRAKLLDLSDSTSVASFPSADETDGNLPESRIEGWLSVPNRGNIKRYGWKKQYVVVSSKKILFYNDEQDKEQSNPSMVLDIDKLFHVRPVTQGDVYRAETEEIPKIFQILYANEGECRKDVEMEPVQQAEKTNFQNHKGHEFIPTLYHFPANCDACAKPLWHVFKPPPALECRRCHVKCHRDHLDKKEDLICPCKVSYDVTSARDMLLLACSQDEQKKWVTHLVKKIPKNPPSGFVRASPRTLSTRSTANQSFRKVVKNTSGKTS

| Compound | Ki [1] | Ki [2] | Ki [3] |
| --- | --- | --- | --- |
| c1ncc(-c2c[nH]c3nccc(O[C@@H]4CCCNC4)c23)cn1 [Example E217, 4-[[(3R)-3-piperidyl]oxy]-3-pyrimidin-5-yl-1H-pyrrolo[2,3-b]pyridine] | 4.01 nM | 77.5 nM | 114 nM |
| 4-[4-(1-piperidyl)-1H-pyrrolo[2,3-b]pyridin-3-yl]pyridin-2-amine [Example E9] | 0.886 nM | 1.25 nM | 1.5 nM |
| c1ncc(-c2c[nH]c3nccc(NC4CCCNC4)c23)cn1 (stereo not drawn) [Example E242] | 19.3 nM | 165 nM | 217 nM |
| c1cc(-c2c[nH]c3nccc(N4CCCCC4)c23)ncn1 [Example E4, 4-(1-piperidyl)-3-pyrimidin-4-yl-1H-pyrrolo[2,3-b]pyridine] | 15.5 nM | 19.7 nM | 28.3 nM |
| NCC1CCN(c2ccnc3[nH]cc(-c4cncnc4)c23)CC1 [Example E105, [1-(3-pyrimidin-5-yl-1H-pyrrolo[2,3-b]pyridin-4-yl)-4-piperidyl]methanamine] | 1 nM | 9.5 nM | 10.1 nM |
| c1ncc(-c2c[nH]c3nccc(NCC4CCNCC4)c23)cn1 [Example E102, N-(4-piperidylmethyl)-3-pyrimidin-5-yl-1H-pyrrolo[2,3-b]pyridin-4-amine] | 13.9 nM | 51.2 nM | 38.2 nM |
| CN[C@H]1CCCN(c2ccnc3[nH]cc(-c4ccccn4)c23)C1 [Example E49, (3S)-N-methyl-1-[3-(2-pyridyl)-1H-pyrrolo[2,3-b]pyridin-4-yl]piperidin-3-amine] | 0.506 nM | 272 nM | 50800 nM |
| NC1CCCN(c2ccnc3[nH]cc(-c4cncnc4)c23)C1 (stereo not drawn) [Example E59, 1-(3-pyrimidin-5-yl-1H-pyrrolo[2,3-b]pyridin-4-yl)piperidin-3-amine] | 6.9 nM | 154 nM | 318 nM |
| c1cnc(-c2c[nH]c3nccc(N4CCCCC4)c23)cn1 [Example E16, 4-(1-piperidyl)-3-pyrazin-2-yl-1H-pyrrolo[2,3-b]pyridine] | 61.8 nM | 159 nM | 504 nM |
| CN1CCC[C@H](COc2ccnc3[nH]cc(-c4cncnc4)c23)C1 [Example E226, 3-pyrimidin-5-yl-4-[[(3S)-1-methyl-3-piperidyl]methoxy]-1H-pyrrolo[2,3-b]pyridine] | 5 nM | 111 nM | 150 nM |
| c1ncc(-c2c[nH]c3nccc(N[C@@H]4CCCNC4)c23)cn1 [Example E88, N-[(3R)-3-piperidyl]-3-pyrimidin-5-yl-1H-pyrrolo[2,3-b]pyridin-4-amine] | 7.21 nM | 70.4 nM | 85.2 nM |
| CN(C1CC1)[C@H]1CCCN(c2ccnc3[nH]cc(-c4cncnc4)c23)C1 (stereo in doubt) [Example E80] | 8.3 nM | 228 nM | 499 nM |
| c1cc(-c2c[nH]c3nccc(N4CCCC5(CCCCN5)C4)c23)cnn1 (stereo not drawn) [Example E172, 8-(3-pyridazin-4-yl-1H-pyrrolo[2,3-b]pyridin-4-yl)-1,8-diazaspiro[5.5]undecane] | 0.723 nM | 14.6 nM | 33.6 nM |
| N#Cc1c[nH]c2nccc(N3CCCC(c4ccccc4)C3)c12 (stereo not drawn) [Example E112, 4-(3-phenyl-1-piperidyl)-1H-pyrrolo[2,3-b]pyridine-3-carbonitrile] | 558 nM | 728 nM | 682 nM |
| CN1CCCN(c2ccnc3[nH]cc(-c4cncnc4)c23)CC1 [Example E103, 4(4-methyl-1,4-diazepan-l-yl)-3-pyrimidin-5-yl-1H-pyrrolo[2,3-b]pyridine] | 18.7 nM | 161 nM | 252 nM |

Further compounds by falling Ki [1], results first:

| Ki [1] | Ki [2] | Ki [3] | Compound |
| --- | --- | --- | --- |
| 696 nM | 10000 nM | 10000 nM | c1ccc2c(-c3c[nH]c4nccc(N5CCCCC5)c34)n[nH]c2c1 [Example E17, 3-(1H-indazol-3-yl)-4-(1-piperidyl)-1H-pyrrolo[2,3-b]pyridine] |
| 378 nM | 1740 nM | 10000 nM | CNC(=O)c1cncc(-c2c[nH]c3nccc(N4CCCCC4)c23)c1 [Example E13, N-methyl-5-[4-(1-piperidyl)-1H-pyrrolo[2,3-b]pyridin-3-yl]pyridine-3-carboxamide] |
| 366 nM | 574 nM | 2150 nM | Clc1cncc(-c2c[nH]c3nccc(N4CCCCC4)c23)c1 [Example E12, 3-(5-chloro-3-pyridyl)-4-(1-piperidyl)-1H-pyrrolo[2,3-b]pyridine] |
| 222 nM | 198 nM | 303 nM | Cc1[nH]ncc1-c1c[nH]c2nccc(N3CCCCC3)c12 [Example E104, 3-(5-methyl-1H-pyrazol-4-yl)-4-(1-piperidyl)-1H-pyrrolo[2,3-b]pyridine] |
| 188 nM | 67.9 nM | 74.9 nM | CCn1cc(-c2c[nH]c3nccc(N4CCCCC4)c23)cn1 [Example E21, 3-(1-ethylpyrazol-4-yl)-4-(1-piperidyl)-1H-pyrrolo[2,3-b]pyridine] |
| 130 nM | 381 nM | 713 nM | c1cc(N2CCC2)c2c(-c3cn[nH]c3)c[nH]c2n1 [Example E27, 4-(azetidin-1-yl)-3-(1H-pyrazol-4-yl)-1H-pyrrolo[2,3-b]pyridine] |
| 64.6 nM | 6500 nM | 15000 nM | Cc1cnc2[nH]cc(-c3cncnc3)c2c1N1CCCCC1 [Example E1, 5-methyl-4-(1-piperidyl)-3-pyrimidin-5-yl-1H-pyrrolo[2,3-b]pyridine] |
| 57.6 nM | 263 nM | 545 nM | c1cncc(-c2c[nH]c3nccc(N4CCC4)c23)c1 [Example E26, 4-(azetidin-1-yl)-3-(3-pyridyl)-1H-pyrrolo[2,3-b]pyridine] |
| 20.5 nM | 92.7 nM | 109 nM | c1ncc(-c2c[nH]c3nccc(NC4CCNCC4)c23)cn1 [Example E89, N-(4-piperidyl)-3-pyrimidin-5-yl-1H-pyrrolo[2,3-b]pyridin-4-amine] |
| 14.1 nM | 460 nM | 421 nM | c1ncc(-c2c[nH]c3nccc(NC4CCCCNC4)c23)cn1 (stereo not drawn) [Example E85, N-(azepan-3-yl)-3-pyrimidin-5-yl-1H-pyrrolo[2,3-b]pyridin-4-amine] |
| 11.5 nM | 68.3 nM | 93.2 nM | Cc1[nH]ncc1-c1c[nH]c2nccc(N3CCC[C@H](N)C3)c12 [Example E61, (3S)-1-[3-(5-methyl-1H-pyrazol-4-yl)-1H-pyrrolo[2,3-b]pyridin-4-yl]piperidin-3-amine] |
| 11.4 nM | 140 nM | 190 nM | CN1CC[C@H](COc2ccnc3[nH]cc(-c4cncnc4)c23)C1 [Example E225, 4-[[(3S)-1-methylpyrrolidin-3-yl]methoxy]-3-pyrimidin-5-yl-1H-pyrrolo[2,3-b]pyridine] |
| 10.5 nM | 248 nM | 379 nM | CN[C@@H]1CCCN(c2ccnc3[nH]cc(-c4cncnc4)c23)C1 [Example E77, (3R)-N-methyl-1-(3-pyrimidin-5-yl-1H-pyrrolo[2,3-b]pyridin-4-yl)piperidin-3-amine] |
| 9.4 nM | 6.5 nM | 9 nM | c1cc(-c2c[nH]c3nccc(N4CCCCC4)c23)cnn1 [Example E14, 4-(1-piperidyl)-3-pyridazin-4-yl-1H-pyrrolo[2,3-b]pyridine] |
| 8.33 nM | 428 nM | 50500 nM | c1ncc(-c2c[nH]c3nccc(N4CCC[C@]5(CCCCN5)C4)c23)cn1 [Example E192, (6R)-8-(3-pyrimidin-5-yl-1H-pyrrolo[2,3-b]pyridin-4-yl)-1,8-diazaspiro[5.5]undecane] |
| 7.85 nM | 93.3 nM | 103 nM | c1ncc(-c2c[nH]c3nccc(NCC4CCCNC4)c23)cn1 (stereo not drawn) [Example E239] |
| 7.41 nM | 2190 nM | 8930 nM | CN[C@H]1CCCN(c2ccnc3[nH]cc(-c4ccc(F)cn4)c23)C1 [Example E51, (3S)-1-[3-(5-fluoro-2-pyridyl)-1H-pyrrolo[2,3-b]pyridin-4-yl]-N-methyl-piperidin-3-amine] |
| 5.84 nM | 108 nM | 153 nM | c1ncc(-c2c[nH]c3nccc(OC4CCNCC4)c23)cn1 [Example E223, 4-(4-piperidyloxy)-3-pyrimidin-5-yl-1H-pyrrolo[2,3-b]pyridine] |
| 4.1 nM | 314 nM | 360 nM | CNC1CCCN(c2ccnc3[nH]cc(-c4cncnc4)c23)C1 (stereo not drawn) [Example E62, N-methyl-1-(3-pyrimidin-5-yl-1H-pyrrolo[2,3-b]pyridin-4-yl)piperidin-3-amine] |
| 3.02 nM | 22.5 nM | 40.8 nM | CNc1cc(-c2c[nH]c3nccc(N4CCCCC4)c23)ccn1 [Example E5, N-methyl-4-[4-(1-piperidyl)-1H-pyrrolo[2,3-b]pyridin-3-yl]pyridin-2-amine] |
| 2.05 nM | 7.7 nM | 9.28 nM | c1ncc(-c2c[nH]c3nccc(N4CCC5(CCNCC5)C4)c23)cn1 [Example E191, 2-(3-pyrimidin-5-yl-1H-pyrrolo[2,3-b]pyridin-4-yl)-2,8-diazaspiro[4.5]decane] |
| 1.73 nM | 756 nM | 3530 nM | CN[C@H]1CCCN(c2ccnc3[nH]cc(-c4ncccc4F)c23)C1 [Example E48, (3S)-1-[3-(3-fluoro-2-pyridyl)-1H-pyrrolo[2,3-b]pyridin-4-yl]-N-methyl-piperidin-3-amine] |
| 1.27 nM | 335 nM | 50500 nM | CN[C@H]1CCCN(c2ccnc3[nH]cc(-c4cccnc4)c23)C1 [Example E53, (3S)-N-methyl-1-[3-(3-pyridyl)-1H-pyrrolo[2,3-b]pyridin-4-yl]piperidin-3-amine] |
